According to patent US11512085B2, “Heteroaryl compound having drug activity” (SHANGHAI DUDE MEDICAL TECHNOLOGY CO., LTD, priority 2017, dated 2022):
Where two headings read alike, the source gives them in different places.

Legend:
SU-DHL-10 = test: In vitro tumor cell proliferation (CellTiter-Glo), SU-DHL-10; type: cell-based; details: Homo sapiens, SU-DHL10; SU-DHL-10, 72 h; read-out: Growth IC50
Method: (§1) Biological Embodiment 8: Study on Effects of Active Compounds for Inhibiting In Vitro Tumor Cell Proliferation
(§2) Promega CellTiter-Glo cell activity detection kit by luminescence (Promega-G7573).
(§3) Tumor cell lines were cultured in a 5% of CO2 incubator at 37° C. according to respective culture conditions; and periodic passage was performed, and cells positioned in a logarithmic phase were taken for planking.
(§4) 3) 90 μL of cell suspension was added into each well of the culture plate, and a culture solution containing no cell was added into blank control;
(§5) 4) the culture plate was cultured overnight in the 5% of CO2 incubator having relative humidity of 100% at 37° C.
(§6) Preparation of a 400× compound storage plate: the compound was diluted from the maximum concentration gradient to the lowest concentration with DMSO. […]
(§7) The following steps were performed according to the specification of the Promega CellTiter-Glo cell activity detection kit by luminescence (Promega-G7573). […]
(§8) 9) the luminescence signal was detected on the 2104 EnVision plate reader.

[1] = Pharmacokinetic study, single intravenous and oral dose, SD rats; type: in vivo; details: male, blood; for AUC(0-t) / Cmax / Tmax / half-life: Rat; for half-life: read-out: T½ (converted)
Method: Biological Embodiment 7: Pharmacokinetic Study of Performing Respective Single Intravenous and Oral Dose Delivery with Test Samples on SD Rats and Beagle Dogs
6 male SD rats were selected, and grouped and administered according to an experimental design table; 3 animals in the first group were intravenously administered once on the day of administration, wherein the administration dosage was 2 mg/kg, and the administration volume was 5 mL/kg; 3 animals in the second group were orally intragastrically administered once on the day of administration, wherein the administration dosage was 10 mg/kg, and the administration volume was 10 mL/kg.
All the animals were subjected to cage edge observation twice every day so as to determine whether the animals got ill or had injuries or death and other situations and whether supply of foods and water was sufficient. In the test process, all administered animals were subjected to detailed clinical observation before administration and at blood collection points.
Before administration (0 h) and within 0.083 h, 0.25 h, 0.5 h, 1 h, 2 h, 4 h, 6 h, 8 h and 24 h after administration, blood samples were collected from femoral veins at 10 time points so as to be used for blood concentration test.

p-Erk/t-Erk = test: Western blotting of p-Erk/t-Erk in anti-IgG stimulated DOHH2 cells; type: cell-based; details: DOHH2 cells, 5, 100, 2000 nM, 1 h, anti-IgG stimulation
Method: Biological Embodiment 4: Analysis of Influences of Test Compounds on p-Btk/t-Btk, p-PLCγ/t-PLCγ and p-Erk/t-Erk Expression Levels of DOHH2 Cells by Virtue of Western Blotting
1) DOHH2 cells on a logarithmic phase were collected;
2) a cell concentration was adjusted to a needed concentration;
3) 2 ml of cell suspension was added into a 6-well plate for performing culture, three different concentrations, that is, 5 nM, 100 nM and 2000 nM, of test samples were respectively set, and each concentration was repeated once;
4) test samples were added into plate wells, and DMSO served as control, wherein a final concentration of the DMSO was 0.1%;
5) culture was performed for 1 h; and […]
6. protein extraction and quantification […]
5) a protein concentration was determined by using Pierce™ BCA Protein Assay Kit; and
6) according to BCA protein quantification results, all samples were diluted to the same final concentration by adding 4×LDS sample buffer and 10× sample reducing agent into the RIPA buffer solution, and the solution was heated at 100° C. for 10 min. […]
10) chemiluminiscence was detected by Tanon 5200 multi.
7. Quantification of strip intensity
Intensity of each strip was quantified by using Image quant densitometry software. […]

DOHH-2 = test: In vitro tumor cell proliferation (CellTiter-Glo), DOHH-2; type: cell-based; details: Homo sapiens, DOHH-2, 72 h; read-out: Growth IC50
Method: as §1, §2, §3, §4, §5, §6, §7, §8

Ramos = test: In vitro tumor cell proliferation (CellTiter-Glo), Ramos; type: cell-based; details: Homo sapiens, 72 h, read-out: Growth IC50
Method: as §1, §2, §3, §4, §5, §6, §7, §8

OCI-LY10 = test: In vitro tumor cell proliferation (CellTiter-Glo), OCI-LY10; type: cell-based; details: Homo sapiens, OCI-Ly10, 72 h; read-out: Growth IC50
Method: as §1, §2, §3, §4, §5, §6, §7, §8

Granta-519 = test: In vitro tumor cell proliferation (CellTiter-Glo), Granta-519; type: cell-based; details: Homo sapiens, Granta-519, 72 h; read-out: Growth IC50
Method: as §1, §2, §3, §4, §5, §6, §7, §8

Question: For `C=CC(=O)NN1CCCC(n2nc(-c3ccc(Oc4ccccc4)cc3)c3c(N)ncnc32)C1` (stereo not drawn) [Embodiment 6, N-(3-(4-amino-3-(4-phenoxyphenyl)-1H-pyrazolo[3,4-D]pyrimidine-1-yl)-1-piperidyl)-acrylamide], which IC50 (SU-DHL-10) is on record?
Answer: The IC50 was greater than 10 µM.

Question: What about the AUC(0-t) ([1]; IV, 2 mg/kg) of the same compound?
Answer: The AUC(0-t) was 271 ng·h/mL.

Question: What about the Cmax ([1]; IV, 2 mg/kg) of the same compound?
Answer: Its Cmax is 658 ng/mL.

Question: And the Tmax ([1]; IV, 2 mg/kg)?
Answer: The Tmax was 4.98 min.

Question: And the half-life ([1]; IV, 2 mg/kg)?
Answer: Its half-life is 10.8 min.

Question: And the AUC(0-t) ([1]; PO, 10 mg/kg)?
Answer: Its AUC(0-t) is 449 ng·h/mL.

Question: What about the Cmax ([1]; PO, 10 mg/kg) of the same compound?
Answer: Its Cmax is 447 ng/mL.

Question: What about the Tmax ([1]; PO, 10 mg/kg) of the same compound?
Answer: Its Tmax is 25.2 min.

Question: And the half-life ([1]; PO, 10 mg/kg)?
Answer: The half-life was 113 min.

Question: What about the bioavailability ([1]; rat, oral, 10 mg/kg) of the same compound?
Answer: The bioavailability was 32.2%.

Question: What about the “relative level of p-Erk/t-Erk” value (p-Erk/t-Erk) of the same compound?
Answer: Its value is “obviously decreased”.

Question: What about the IC50 (DOHH-2) of the same compound?
Answer: The IC50 was less than 0.003 µM.

Question: What about the IC50 (Ramos) of the same compound?
Answer: Its IC50 is 1.4 µM.

Question: And the IC50 (OCI-LY10)?
Answer: The IC50 was 0.006 µM.

Question: What about the IC50 (Granta-519) of the same compound?
Answer: Its IC50 is 7.07 µM.
